From EPA's ToxValDB 9.5 (doi:10.2903/j.efsa.2013.3240)
In brackets after ≈: the same amount, converted by molar mass.

Experiments:
[1] = tested on: Colinus virginianus; conditions: for NOEL: reproduction developmental, reproduction
[2] = tested on: Tagia sp.
[3] = tested on: Neomysis kadiakensis
[4] = tested on: Oncorhynchus mykiss; conditions: acute; duration: 96 hours; mortality
[5] = tested on: Bibionidae; conditions: chronic/long-term; duration: 28 days; other
[6] = tested on: Apis mellifera; conditions: acute; duration: 48 hours; oral; unspecified; mortality
[7] = tested on: Rattus norvegicus
[8] = tested on: Typhlodromus pyri; assay: LR50; higher = less toxic; conditions: acute; duration: 7 days; mortality
[9] = tested on: Aphidius rhopalosiphi; assay: LR50; higher = less toxic; conditions: acute; duration: 48 hours; mortality

Question: For `FC(F)(F)c1ccc(OCCCOc2c(Cl)cc(OCC=C(Cl)Cl)cc2Cl)nc1` [Pyridalyl], which LC50 ([1]; acute, oral, diet, mortality) is on record?
Answer: Its LC50 is 334 mg/kg-day.

Question: What about the LD50 ([1]; acute, oral, mortality) of the same compound?
Answer: Its LD50 is greater than 2250 mg/kg-day.

Question: What about the NOEL ([1]; F) of the same compound?
Answer: Its NOEL is 11.9 mg/kg-day.

Question: What about the NOEL [1] of the same compound?
Answer: Its NOEL is 12.6 mg/kg-day.

Question: What about the LC50 ([2]; acute, duration: 14 days, mortality) of the same compound?
Answer: Its LC50 is greater than 1000 mg/kg.

Question: What about the NOEC ([2]; chronic/long-term, duration: 56 days, reproduction) of the same compound?
Answer: The NOEC was 63 mg/kg.

Question: What about the LC50 ([3]; acute, duration: 96 hours, mortality) of the same compound?
Answer: The LC50 was 0.001 µg/mL (≈ 0.00204 µM).

Question: And the NOEC ([3]; chronic/long-term, duration: 28 days, reproduction)?
Answer: The NOEC was 0.45 µg/L.

Question: And the LC50 [4]?
Answer: Its LC50 is 0.5 µg/mL (≈ 1.02 µM).

Question: And the NOEC [5]?
Answer: The NOEC was 12 µg/L.

Question: What about the LD50 [6] of the same compound?
Answer: The LD50 was greater than 100 µg/piece.

Question: And the LD50 ([7]; acute, oral, mortality)?
Answer: Its LD50 is greater than 5000 mg/kg-day.

Question: What about the NOAEL ([7]; chronic, duration: 2 years, body weight) of the same compound?
Answer: The NOAEL was 3.4 mg/kg-day.

Question: And the NOAEL ([7]; reproduction developmental, body weight)?
Answer: Its NOAEL is 2.8 mg/kg-day.

Question: And the NOAEL ([7]; subchronic, duration: 13 weeks, oral, hematological)?
Answer: The NOAEL was 5.6 mg/kg-day.

Question: And the LR50 [8]?
Answer: The LR50 was greater than 600 g/ha.

Question: And the LR50 [9]?
Answer: Its LR50 is 458 g/ha.
